# Experimental data published in US20160199364A1, “SEIZURE TREATMENT COMPOSITIONS AND METHODS” (Creighton University, priority 2015, published 2016).
# Tests used:
# [1] = test system: spontaneous recurrent seizures in epileptic Kv1.1 knockout (KO) mice; test: Spontaneous recurrent seizures by 24 hr video-EEG (seizure incidence, seizure burden index); format: in vivo, mouse
# Experimental: (§1) Dietary and pharmacological treatments. […] For dietary experiments involving Kv1.1WT and Kv1.1KO mice, drinking water contained either 0.0323% DMSO vehicle or GW9662 ([…]) to obtain an average dosage of 1.062±0.038 mg/kg/day (n=18). There was no difference in the average daily water consumption or resulting GW9662 dosage between experimental groups (see FIG. 2H). […] Three hours after the last pioglitazone injection, mice were euthanized and brains processed for western blot, electrophysiology, or mitochondria experiments.
# Intracranial electroencephalography electrode implantation and seizure analysis. On P27, mice underwent surgical implantation of electrodes. Mice were maintained under isoflurane anesthesia and normothermic conditions. One ground (1.5 mm anterior lamba, 1.5 mm lateral) and two subdural (1 mm posterior Bregma, 1.5 mm bilateral) intracranial cortical electroencephalographic (iEEG) electrodes were implanted, secured, and attached to a headmount. […] EEG recordings were acquired with a 250 Hz sampling rate and band-pass filtered between 0.5 and 40 Hz. During seizure monitoring, mice were single-housed in hexagon cages. EEG recordings were imported into Spike2 v6-7 software (Cambridge Electronic Design, Cambridge, England) for initial seizure identification using time-frequency analysis. […] Incidence and severity of each seizure was scored for the first 15 minutes of each hour during the time period of highest seizure occurrence for Kv1.1KO mice (00:00-08:00). Seizure severity was scored using a modified Racine scale: 0—normal; 1—myoclonic jerk or “pop;” 2—side-to-side head movement; 3—forelimb/hindlimb clonus, tail extension, a single rearing event; 4—continuous rearing and falling; 5—severe tonic-clonic seizures. To weigh the incidence and severity of seizures, seizure burden index (SBI) scores were calculated using the equation: SBI=[Σ(σiγi)]/ε, where σ indicates the severity; i indicates each stage of seizure (1-5); γ is the incidence; and ε indicates the total number of epochs scored.
# [2] = test system: hippocampal mossy fiber-CA3 synapse and CA3 network; test: Acute hippocampal slice multielectrode array recordings after in vivo treatment; parameters: species or system mouse; conditions: Kv1.1KO mice treated in vivo (pioglitazone 10 mg/kg/day i.p. or KD), hippocampal slices
# Experimental: as §1
# Acute hippocampal slice preparation and multielectrode array recordings. […] Spontaneous and evoked extracellular potentials were recorded with Mobius v2 software (Witwerx Inc., Tustin, Calif., USA) and acquired at a 20 kHz sampling rate with a bandwidth of 0.1 Hz-10 kHz. Post-synaptic field potentials and short-term plasticity of the mossy fiber (MF)-CA3 synapse were obtained by successive paired stimulations (50 ms inter-stimulus interval, 50% maximal intensity) of Dentate granule cell mossy fibers located in the hilar region and recorded in CA3 stratum lucidum. Paired pulse facilitation was calculated by dividing the slope (10-90%) of stimulation 2 by the slope of stimulation 1 and presented as the percent above stimulation 1. […]
# Body weight = format: in vivo, mouse; conditions: pioglitazone 10 mg/kg/day i.p., five days; Kv1.1WT or Kv1.1KO mice
# [3] = test system: mitochondrial respiratory complex I (MRCI); test: Oxygen polarography of isolated cortical mitochondria after in vivo treatment; parameters: species or system mouse; conditions: Kv1.1KO mice treated in vivo (pioglitazone 10 mg/kg/day i.p. or KD)
# Experimental: as §1
# Mitochondrial isolation and oxytherm polarography. Mice were anesthetized with isoflurane and cortical tissue was quickly micro-dissected on ice. Tissue was homogenized in isolation buffer (5×V/V in mM: 215 mannitol, 75 sucrose, 1 EGTA 20 HEPES and 0.1% BSA, pH 7.2 adjusted with KOH) and mitochondria were isolated using differential centrifugation. Isolated mitochondria were resuspended in isolation buffer without EGTA. Protein concentrations were determined with Bradford assay. […] Oxygen polarography was measured using a standard Clark-type electrode (Hanstech Instruments, Ltd., Norfolk, England). […] Only samples with a respiratory control ratio greater than 4 were analyzed. Unbiased assessment of the rate of oxygen consumption was determined using computer-generated line of best-fit algorithm and nmol of oxygen mg^−1 min^−1 was calculated.
Structure (SMILES),"KD anti-seizure efficacy ([1]; GW9662 ~1 mg/kg/day co-administered throughout KD treatment, Kv1.1KO mice)","Kv1.1KO seizures (worsening) ([1]; GW9662 ~1 mg/kg/day in drinking water, Kv1.1KO mice)","induction of spontaneous seizures in WT mice ([1]; GW9662 ~1 mg/kg/day in drinking water, WT mice)",attenuation of HFO (high frequency oscillation) incidence ([2]; CA3 network) [%],increase of mossy fiber paired pulse facilitation [2] [%],body weight (Body weight),improvement of mitochondrial respiration (MRCI State III) [3] [%]
O=C(Nc1ccccc1)c1cc([N+](=O)[O-])ccc1Cl [GW9662],prevented,did not worsen,did not,–,–,–,–
CCc1ccc(CCOc2ccc(CC3SC(=O)NC3=O)cc2)nc1 (stereo not shown) [pioglitazone],–,–,–,~60,~45,did not change,~80
